Where a name gives a salt, the structure may show the parent alone.
Target: human KDR protein in HEK-293 cells (Homo sapiens (Human), UniProt P35968)
Experiment: KDR Cell Assay (phospho-KDR in HEK-293 cells expressing inducible KDR)
Format: cell-based
Details: pKDR Cell HEK 10% FBS IC50, HEK-293 cells expressing inducible KDR, VEGF stimulated
In short: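 HEK-293 cells with inducible human KDR were treated with compound for 1 h in DMEM (0.25% DMSO final), then lysed. Phospho-KDR was quantified by Meso Scale immunoassay, expressed as percent of control, and IC50 taken where a 4-parameter logistic fit crossed 50 POC.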

Sequence of human KDR protein in HEK-293 cells (P35968 20-1356): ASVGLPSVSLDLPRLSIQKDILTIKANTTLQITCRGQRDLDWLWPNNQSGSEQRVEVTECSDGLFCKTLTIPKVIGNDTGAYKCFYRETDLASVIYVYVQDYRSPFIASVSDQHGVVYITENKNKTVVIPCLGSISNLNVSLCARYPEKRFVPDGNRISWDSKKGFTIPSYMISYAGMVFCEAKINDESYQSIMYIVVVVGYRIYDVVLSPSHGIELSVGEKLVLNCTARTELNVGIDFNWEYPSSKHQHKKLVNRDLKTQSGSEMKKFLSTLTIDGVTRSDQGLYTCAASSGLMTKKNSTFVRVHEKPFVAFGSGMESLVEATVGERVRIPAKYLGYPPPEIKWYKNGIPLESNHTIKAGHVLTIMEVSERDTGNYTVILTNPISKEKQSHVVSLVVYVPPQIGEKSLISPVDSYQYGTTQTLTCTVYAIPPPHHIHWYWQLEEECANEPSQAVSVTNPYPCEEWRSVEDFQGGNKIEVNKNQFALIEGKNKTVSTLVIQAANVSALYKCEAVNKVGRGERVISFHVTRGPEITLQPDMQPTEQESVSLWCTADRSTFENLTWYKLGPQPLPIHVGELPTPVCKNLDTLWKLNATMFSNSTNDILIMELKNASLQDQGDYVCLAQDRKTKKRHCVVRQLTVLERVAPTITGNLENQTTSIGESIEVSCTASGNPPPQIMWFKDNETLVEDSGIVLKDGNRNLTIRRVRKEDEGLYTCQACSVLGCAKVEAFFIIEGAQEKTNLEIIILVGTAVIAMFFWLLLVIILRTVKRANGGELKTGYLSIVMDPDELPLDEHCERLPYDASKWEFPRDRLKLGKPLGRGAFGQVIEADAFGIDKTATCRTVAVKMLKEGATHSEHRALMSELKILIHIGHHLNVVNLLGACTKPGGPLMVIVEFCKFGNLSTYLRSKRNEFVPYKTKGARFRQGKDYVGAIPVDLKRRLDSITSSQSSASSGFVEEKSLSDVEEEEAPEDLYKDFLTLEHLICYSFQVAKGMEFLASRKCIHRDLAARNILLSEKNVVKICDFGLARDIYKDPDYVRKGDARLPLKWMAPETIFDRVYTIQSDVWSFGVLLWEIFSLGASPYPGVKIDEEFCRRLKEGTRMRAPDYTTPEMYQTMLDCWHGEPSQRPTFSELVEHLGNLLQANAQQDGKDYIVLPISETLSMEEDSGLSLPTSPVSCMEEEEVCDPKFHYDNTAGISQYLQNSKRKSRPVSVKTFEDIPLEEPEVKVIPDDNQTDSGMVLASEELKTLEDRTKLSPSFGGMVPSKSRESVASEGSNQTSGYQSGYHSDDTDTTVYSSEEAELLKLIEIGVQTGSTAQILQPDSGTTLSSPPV

SMILES | IC50 [nM]
Cn1cc(-c2cc(-c3ccc(N4CCN(Cc5ccncc5F)CC4)nc3)c3c(C#N)cnn3c2)cn1 [Example 434, 4-(6-(4-((3-fluoropyridin-4-yl)methyl)piperazin-1-yl)pyridin-3-yl)-6-(1-methyl-1H-pyrazol-4-yl)pyrazolo[1,5-a]pyridine-3-carbonitrile] | 1700
COc1ccc(CN2CCN(c3ccc(-c4cc(-c5cnn(C)c5)cn5ncc(C#N)c45)cn3)CC2)cn1 [Example 474, 4-(6-(4-((6-methoxypyridin-3-yl)methyl)piperazin-1-yl)pyridin-3-yl)-6-(1-methyl-1H-pyrazol-4-yl)pyrazolo[1,5-a]pyridine-3-carbonitrile] | 305
Cn1cc(-c2cc(-c3ccc(N4CCN(CC5CC5)CC4)nc3)c3c(C#N)cnn3c2)cn1 [Example 394, 4-(6-(4-(cyclopropylmethyl)piperazin-1-yl)pyridin-3-yl)-6-(1-methyl-1H-pyrazol-4-yl)pyrazolo[1,5-a]pyridine-3-carbonitrile] | 453
Cn1cc(-c2cc(-c3ccc(N4CC5CC(C4)N5Cc4ccccn4)nc3)c3c(C#N)cnn3c2)cn1 [Example 693, 6-(1-methyl-1H-pyrazol-4-yl)-4-(6-(6-(pyridin-2-ylmethyl)-3,6-diazabicyclo[3.1.1]heptan-3-yl)pyridin-3-yl)pyrazolo[1,5-a]pyridine-3-carbonitrile] | 1020
Cn1cc(-c2cc(-c3ccc(N4CCC5(CNC5)C4)nc3)c3c(C#N)cnn3c2)cn1 [Example 549, 4-(6-(2,6-diazaspiro[3.4]octan-6-yl)pyridin-3-yl)-6-(1-methyl-1H-pyrazol-4-yl)pyrazolo[1,5-a]pyridine-3-carbonitrile dihydrochloride] | 986
Cn1cc(-c2cc(-c3ccc(N4CCC5(CC4)CN(C(=O)C4CC4)C5)nc3)c3c(C#N)cnn3c2)cn1 [Example 492, 4-(6-(2-(cyclopropanecarbonyl)-2,7-diazaspiro[3.5]nonan-7-yl)pyridin-3-yl)-6-(1-methyl-1H-pyrazol-4-yl)pyrazolo[1,5-a]pyridine-3-carbonitrile] | 563
Cc1c(CN2CCN(c3ccc(-c4cc(-c5cnn(C)c5)cn5ncc(C#N)c45)cn3)CC2)cnn1C [Example 435, 4-(6-(4-((1,5-dimethyl-1H-pyrazol-4-yl)methyl)piperazin-1-yl)pyridin-3-yl)-6-(1-methyl-1H-pyrazol-4-yl)pyrazolo[1,5-a]pyridine-3-carbonitrile] | 1330
CN(C)c1ccc(CN2CCN(c3ccc(-c4cc(-c5cnn(C)c5)cn5ncc(C#N)c45)cn3)CC2)cc1 [Example 461, 4-(6-(4-(4-(dimethylamino)benzyl)piperazin-1-yl)pyridin-3-yl)-6-(1-methyl-1H-pyrazol-4-yl)pyrazolo[1,5-a]pyridine-3-carbonitrile] | 129

Same assay, conditions: pKDR Cell HEK 10% FBS IC50, HEK-293 cells expressing inducible KDR, VEGF stimulated, 10% FBS

SMILES | IC50 [nM]
Cn1cc(-c2cc(-c3ccc(N4CCN(C(=O)c5ccccc5)CC4)nc3)c3c(C#N)cnn3c2)cn1 [Example 69, 4-(6-(4-benzoylpiperazin-1-yl)pyridin-3-yl)-6-(1-methyl-1H-pyrazol-4-yl)pyrazolo[1,5-a]pyridine-3-carbonitrile] | 117
Cn1cc(-c2cc(-c3ccc(N4CCN(C(=O)C5(c6cccc(F)c6)CC5)CC4)nc3)c3c(C#N)cnn3c2)cn1 [Example 349, 4-(6-(4-(1-(3-fluorophenyl)cyclopropanecarbonyl)piperazin-1-yl)pyridin-3-yl)-6-(1-methyl-1H-pyrazol-4-yl)pyrazolo[1,5-a]pyridine-3-carbonitrile] | 404
Cn1cc(-c2cc(-c3ccc(N4CCN(C[C@@H](O)c5ccccc5)CC4)nc3)c3c(C#N)cnn3c2)cn1 [Example 162, (S)-4-(6-(4-(2-hydroxy-2-phenylethyl)piperazin-1-yl)pyridin-3-yl)-6-(1-methyl-1H-pyrazol-4-yl)pyrazolo[1,5-a]pyridine-3-carbonitrile] | 42
Cn1cc(-c2cc(-c3ccc(N4CCN(C(=O)N5CC[C@H](F)C5)CC4)nc3)c3c(C#N)cnn3c2)cn1 [Example 102, (S)-4-(6-(4-(3-fluoropyrrolidine-1-carbonyl)piperazin-1-yl)pyridin-3-yl)-6-(1-methyl-1H-pyrazol-4-yl)pyrazolo[1,5-a]pyridine-3-carbonitrile] | 551
COCC1(C(=O)N2CCN(c3ccc(-c4cc(-c5cnn(C)c5)cn5ncc(C#N)c45)cn3)CC2)CC1 [Example 353, 4-(6-(4-(1-(methoxymethyl)cyclopropanecarbonyl)piperazin-1-yl)pyridin-3-yl)-6-(1-methyl-1H-pyrazol-4-yl)pyrazolo[1,5-a]pyridine-3-carbonitrile] | 1710
C[C@H]([C@H](O)c1ccccc1)N1CCN(c2ccc(-c3cc(-c4cnn(C)c4)cn4ncc(C#N)c34)cn2)CC1 [Example 147, 4-(6-(4-((1R,2R)-1-hydroxy-1-phenylpropan-2-yl)piperazin-1-yl)pyridin-3-yl)-6-(1-methyl-1H-pyrazol-4-yl)pyrazolo[1,5-a]pyridine-3-carbonitrile] | 1290
Cn1cc(-c2cc(-c3ccc(N4CCN(C(=O)[C@H](O)c5ccccc5)CC4)nc3)c3c(C#N)cnn3c2)cn1 [Example 82, (R)-4-(6-(4-(2-hydroxy-2-phenylacetyl)piperazin-1-yl)pyridin-3-yl)-6-(1-methyl-1H-pyrazol-4-yl)pyrazolo[1,5-a]pyridine-3-carbonitrile] | 91.2
Cn1cc(-c2cc(-c3ccc(N4CCN(C(=O)Cc5ccccc5)CC4)nc3)c3c(C#N)cnn3c2)cn1 [Example 78, 6-(1-methyl-1H-pyrazol-4-yl)-4-(6-(4-(2-phenylacetyl)piperazin-1-yl)pyridin-3-yl)pyrazolo[1,5-a]pyridine-3-carbonitrile] | 80.6
Cn1cc(-c2cc(-c3ccc(N4CCN(C(=O)C5(c6ccccc6)CCCC5)CC4)nc3)c3c(C#N)cnn3c2)cn1 [Example 24, 6-(1-methyl-1H-pyrazol-4-yl)-4-(6-(4-(1-phenylcyclopentanecarbonyl)piperazin-1-yl)pyridin-3-yl)pyrazolo[1,5-a]pyridine-3-carbonitrile] | 960
Cn1cc(-c2cc(-c3ccc(N4CCN(C(=O)[C@@H](O)Cc5ccccc5)CC4)nc3)c3c(C#N)cnn3c2)cn1 [Example 4] | 328
Cn1cc(-c2cc(-c3ccc(N4CCC(C(=O)N5CCCC5)CC4)nc3)c3c(C#N)cnn3c2)cn1 [Example 248, 6-(1-methyl-1H-pyrazol-4-yl)-4-(6-(4-(pyrrolidine-1-carbonyl)piperidin-1-yl)pyridin-3-yl)pyrazolo[1,5-a]pyridine-3-carbonitrile] | 1240
Cn1cc(-c2cc(-c3ccc(N4CCN(C(=O)c5cc(C6CC6)[nH]n5)CC4)nc3)c3c(C#N)cnn3c2)cn1 [Example 370, 4-(6-(4-(5-cyclopropyl-1H-pyrazole-3-carbonyl)piperazin-1-yl)pyridin-3-yl)-6-(1-methyl-1H-pyrazol-4-yl)pyrazolo[1,5-a]pyridine-3-carbonitrile bis(2,2,2-trifluoroacetate)] | 29.8
C[C@@H]([C@@H](O)c1ccccc1)N1CCN(c2ccc(-c3cc(-c4cnn(C)c4)cn4ncc(C#N)c34)cn2)CC1 [Example 149, 4-(6-(4-((1S,2S)-1-hydroxy-1-phenylpropan-2-yl)piperazin-1-yl)pyridin-3-yl)-6-(1-methyl-1H-pyrazol-4-yl)pyrazolo[1,5-a]pyridine-3-carbonitrile] | 563
Cn1cc(-c2cc(-c3ccc(N4CCC(NC(=O)[C@H]5CCCO5)CC4)nc3)c3c(C#N)cnn3c2)cn1 [Example 178, (R)—N-(1-(5-(3-cyano-6-(1-methyl-1H-pyrazol-4-yl)pyrazolo[1,5-a]pyridin-4-yl)pyridin-2-yl)piperidin-4-yl)tetrahydrofuran-2-carboxamide] | 426
Cn1cc(-c2cc(-c3ccc(N4CCN(C(=O)c5cccnc5)CC4)nc3)c3c(C#N)cnn3c2)cn1 [Example 73, 6-(1-methyl-1H-pyrazol-4-yl)-4-(6-(4-nicotinoylpiperazin-1-yl)pyridin-3-yl)pyrazolo[1,5-a]pyridine-3-carbonitrile] | 296
Cn1cc(-c2cc(-c3ccc(N4CCN(C(=O)c5cnccn5)CC4)nc3)c3c(C#N)cnn3c2)cn1 [Example 38, 6-(1-methyl-1H-pyrazol-4-yl)-4-(6-(4-(pyrazine-2-carbonyl)piperazin-1-yl)pyridin-3-yl)pyrazolo[1,5-a]pyridine-3-carbonitrile 2,2,2-trifluoroacetate] | 396
Cn1cc(-c2cc(-c3ccc(N4CCN(C(=O)N5CCC(F)CC5)CC4)nc3)c3c(C#N)cnn3c2)cn1 [Example 114, 4-(6-(4-(4-fluoropiperidine-1-carbonyl)piperazin-1-yl)pyridin-3-yl)-6-(1-methyl-1H-pyrazol-4-yl)pyrazolo[1,5-a]pyridine-3-carbonitrile] | 2250
Cn1cc(-c2cc(-c3ccc(N4CCN(CC(O)c5ccc(Cl)cc5)CC4)nc3)c3c(C#N)cnn3c2)cn1 (stereo not shown) [Example 152, 4-(6-(4-(2-(4-chlorophenyl)-2-hydroxyethyl)piperazin-1-yl)pyridin-3-yl)-6-(1-methyl-1H-pyrazol-4-yl)pyrazolo[1,5-a]pyridine-3-carbonitrile] | 207
Cn1cc(-c2cc(-c3ccc(N4CCN(C(=O)C5(c6ccc(Cl)cc6Cl)CC5)CC4)nc3)c3c(C#N)cnn3c2)cn1 [Example 343, 4-(6-(4-(1-(2,4-dichlorophenyl)cyclopropanecarbonyl)piperazin-1-yl)pyridin-3-yl)-6-(1-methyl-1H-pyrazol-4-yl)pyrazolo[1,5-a]pyridine-3-carbonitrile] | 1660
C[C@H](CO)Cn1cc(-c2cc(-c3ccc(N4CCN(C(=O)CC(C)(C)C)CC4)cc3)c3c(C#N)cnn3c2)cn1 [Example 307, (S)-4-(4-(4-(3,3-dimethylbutanoyl)piperazin-1-yl)phenyl)-6-(1-(3-hydroxy-2-methylpropyl)-1H-pyrazol-4-yl)pyrazolo[1,5-a]pyridine-3-carbonitrile] | 864
